Measured values as given in patent US8232289B2, “Spiropiperidine compounds as ORL-1 receptor antagonists” (Eli Lilly and Company, priority 2009, dated 2012).
Like-named read-outs stand apart in the source and are kept apart here. Marks after values point to notes of the source that are not given here.

Experiments:
[1] = molecular target: Delta Opioid (Homo sapiens, UniProt P41143); experiment: Radioligand binding selectivity, Delta Opioid
Excerpt: (§1) Similarly, Ki for the mu, kappa and delta opioids, serotonin, dopamine, adrenergic, mucarinic, and histamine receptors, as well as binding to the norepinephrine transporter, sodium channel, chloride channel, and calcium channel may be determined using membranes expressing the desired receptor/transporter/channels and appropriate corresponding radioligand competitor molecules.

[2] = molecular target: 5-HT1A (Homo sapiens, UniProt P08908); experiment: Radioligand binding selectivity, 5-HT1A
Excerpt: as §1

[3] = molecular target: 5-HT1B (Homo sapiens, UniProt P28222); experiment: Radioligand binding selectivity, 5-HT1B
Sequence of 5-HT1B (P28222 whole entry, species assumed): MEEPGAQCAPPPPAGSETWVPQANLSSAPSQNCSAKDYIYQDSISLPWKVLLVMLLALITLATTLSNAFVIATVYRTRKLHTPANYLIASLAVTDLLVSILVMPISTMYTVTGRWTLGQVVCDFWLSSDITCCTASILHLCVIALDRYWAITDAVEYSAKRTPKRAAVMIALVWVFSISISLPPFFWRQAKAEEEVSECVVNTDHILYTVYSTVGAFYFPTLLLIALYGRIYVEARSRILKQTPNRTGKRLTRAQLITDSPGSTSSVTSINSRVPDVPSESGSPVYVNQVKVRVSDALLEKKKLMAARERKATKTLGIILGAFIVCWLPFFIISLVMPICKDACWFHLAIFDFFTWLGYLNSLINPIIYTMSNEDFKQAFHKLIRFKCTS
Excerpt: as §1

[4] = molecular target: 5-HT1D (Homo sapiens, UniProt P28221); experiment: Radioligand binding selectivity, 5-HT1D
Sequence of 5-HT1D (P28221 whole entry, species assumed): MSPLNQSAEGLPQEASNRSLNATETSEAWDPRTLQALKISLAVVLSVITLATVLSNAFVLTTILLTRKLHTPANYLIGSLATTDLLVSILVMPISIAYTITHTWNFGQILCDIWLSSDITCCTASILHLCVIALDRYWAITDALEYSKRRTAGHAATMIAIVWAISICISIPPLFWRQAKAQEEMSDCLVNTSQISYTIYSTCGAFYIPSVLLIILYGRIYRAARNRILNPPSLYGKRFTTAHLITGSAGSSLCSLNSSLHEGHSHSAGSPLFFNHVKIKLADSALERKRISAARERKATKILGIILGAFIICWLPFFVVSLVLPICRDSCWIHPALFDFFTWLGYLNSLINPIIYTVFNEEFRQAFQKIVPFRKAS
Excerpt: as §1

[5] = molecular target: 5-HT1E (Homo sapiens, UniProt P28566); experiment: Radioligand binding selectivity, 5-HT1E
Excerpt: as §1

[6] = molecular target: 5-HT1F (Homo sapiens, UniProt P30939); experiment: Radioligand binding selectivity, 5-HT1F
Sequence of 5-HT1F (P30939 whole entry, species assumed): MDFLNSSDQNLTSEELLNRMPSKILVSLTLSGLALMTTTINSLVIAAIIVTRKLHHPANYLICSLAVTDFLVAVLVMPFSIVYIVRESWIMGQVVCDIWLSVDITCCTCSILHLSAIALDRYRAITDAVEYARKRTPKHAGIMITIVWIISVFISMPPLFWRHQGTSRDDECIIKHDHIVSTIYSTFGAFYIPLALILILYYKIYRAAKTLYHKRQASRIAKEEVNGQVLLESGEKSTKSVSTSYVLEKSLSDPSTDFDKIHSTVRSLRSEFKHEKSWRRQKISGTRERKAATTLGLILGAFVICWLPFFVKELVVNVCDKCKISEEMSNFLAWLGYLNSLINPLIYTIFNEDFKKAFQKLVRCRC
Excerpt: as §1

[7] = molecular target: 5-HT2A (Homo sapiens, UniProt P28223); experiment: Radioligand binding selectivity, 5-HT2A
Sequence of 5-HT2A (P28223 whole entry, species assumed): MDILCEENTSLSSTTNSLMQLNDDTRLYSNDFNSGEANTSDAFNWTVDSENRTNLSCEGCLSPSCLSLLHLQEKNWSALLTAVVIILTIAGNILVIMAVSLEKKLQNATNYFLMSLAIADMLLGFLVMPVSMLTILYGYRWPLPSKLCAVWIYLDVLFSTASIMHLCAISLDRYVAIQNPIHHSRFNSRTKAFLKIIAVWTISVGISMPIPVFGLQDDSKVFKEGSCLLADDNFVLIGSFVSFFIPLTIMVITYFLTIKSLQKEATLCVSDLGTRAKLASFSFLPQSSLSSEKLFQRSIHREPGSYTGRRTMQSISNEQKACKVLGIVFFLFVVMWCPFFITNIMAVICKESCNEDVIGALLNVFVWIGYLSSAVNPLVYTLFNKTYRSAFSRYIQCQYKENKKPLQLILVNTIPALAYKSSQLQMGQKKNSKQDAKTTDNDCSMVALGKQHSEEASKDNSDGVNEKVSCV
Excerpt: as §1

[8] = molecular target: 5-HT2B (Homo sapiens, UniProt P41595); experiment: Radioligand binding selectivity, 5-HT2B
Sequence of 5-HT2B (P41595 whole entry, species assumed): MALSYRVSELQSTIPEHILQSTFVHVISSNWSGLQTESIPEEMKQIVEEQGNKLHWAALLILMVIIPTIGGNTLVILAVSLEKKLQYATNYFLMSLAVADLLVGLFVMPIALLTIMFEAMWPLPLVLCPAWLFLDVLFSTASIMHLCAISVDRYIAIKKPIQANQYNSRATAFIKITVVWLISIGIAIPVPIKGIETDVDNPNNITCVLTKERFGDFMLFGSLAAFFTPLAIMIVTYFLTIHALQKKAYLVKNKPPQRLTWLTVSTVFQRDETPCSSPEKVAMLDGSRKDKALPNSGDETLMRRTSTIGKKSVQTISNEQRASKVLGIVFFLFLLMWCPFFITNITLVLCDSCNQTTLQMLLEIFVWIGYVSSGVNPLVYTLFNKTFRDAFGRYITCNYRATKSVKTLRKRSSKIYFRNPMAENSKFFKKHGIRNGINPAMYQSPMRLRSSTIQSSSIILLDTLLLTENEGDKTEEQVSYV
Excerpt: as §1

[9] = molecular target: 5-HT2C (Homo sapiens, UniProt P28335); experiment: Radioligand binding selectivity, 5-HT2C
Excerpt: as §1

[10] = molecular target: 5-HT4 (Homo sapiens, UniProt Q13639); experiment: Radioligand binding selectivity, 5-HT4
Sequence of 5-HT4 (Q13639 whole entry, species assumed): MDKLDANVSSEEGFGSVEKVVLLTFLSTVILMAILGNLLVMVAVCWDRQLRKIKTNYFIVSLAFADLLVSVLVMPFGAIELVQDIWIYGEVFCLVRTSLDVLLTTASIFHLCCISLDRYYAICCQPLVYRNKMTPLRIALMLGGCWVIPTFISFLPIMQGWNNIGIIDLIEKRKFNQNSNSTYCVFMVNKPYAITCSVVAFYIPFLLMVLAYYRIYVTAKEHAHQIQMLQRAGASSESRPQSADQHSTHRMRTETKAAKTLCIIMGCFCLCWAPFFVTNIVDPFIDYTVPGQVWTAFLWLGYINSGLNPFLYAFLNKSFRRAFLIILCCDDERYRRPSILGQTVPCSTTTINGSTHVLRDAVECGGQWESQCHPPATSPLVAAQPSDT
Excerpt: as §1

[11] = molecular target: 5-HT5 (Homo sapiens, UniProt P47898); experiment: Radioligand binding selectivity, 5-HT5
Excerpt: as §1

[12] = molecular target: D1 Dopamine (Homo sapiens, UniProt P21728); experiment: Radioligand binding selectivity, D1 Dopamine
Excerpt: as §1

[13] = molecular target: D2 Dopamine (Homo sapiens, UniProt P14416); experiment: Radioligand binding selectivity, D2 Dopamine
Excerpt: as §1

[14] = molecular target: Adenosine A3 (Homo sapiens, UniProt P0DMS8); experiment: Radioligand binding selectivity, Adenosine A3
[15] = molecular target: Adrenergic Alpha1; experiment: Radioligand binding selectivity, Adrenergic Alpha1
Excerpt: as §1

[16] = molecular target: Adrenergic Beta2 (Homo sapiens, UniProt P07550); experiment: Radioligand binding selectivity, Adrenergic Beta2
Sequence of Adrenergic Beta2 (P07550 whole entry): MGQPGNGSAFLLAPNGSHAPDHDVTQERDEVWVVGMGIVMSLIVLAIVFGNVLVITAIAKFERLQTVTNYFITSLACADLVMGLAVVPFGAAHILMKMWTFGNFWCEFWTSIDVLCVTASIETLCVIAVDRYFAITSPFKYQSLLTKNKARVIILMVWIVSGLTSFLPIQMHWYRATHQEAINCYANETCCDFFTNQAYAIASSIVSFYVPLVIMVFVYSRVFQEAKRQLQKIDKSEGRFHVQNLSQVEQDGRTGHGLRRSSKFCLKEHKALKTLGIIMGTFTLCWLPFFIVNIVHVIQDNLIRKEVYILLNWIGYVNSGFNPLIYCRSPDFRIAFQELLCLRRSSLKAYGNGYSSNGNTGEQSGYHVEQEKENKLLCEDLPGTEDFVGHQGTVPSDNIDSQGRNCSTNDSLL
Excerpt: as §1

[17] = molecular target: Histamine H1 (Homo sapiens, UniProt P35367); experiment: Radioligand binding selectivity, Histamine H1
Sequence of Histamine H1 (P35367 whole entry): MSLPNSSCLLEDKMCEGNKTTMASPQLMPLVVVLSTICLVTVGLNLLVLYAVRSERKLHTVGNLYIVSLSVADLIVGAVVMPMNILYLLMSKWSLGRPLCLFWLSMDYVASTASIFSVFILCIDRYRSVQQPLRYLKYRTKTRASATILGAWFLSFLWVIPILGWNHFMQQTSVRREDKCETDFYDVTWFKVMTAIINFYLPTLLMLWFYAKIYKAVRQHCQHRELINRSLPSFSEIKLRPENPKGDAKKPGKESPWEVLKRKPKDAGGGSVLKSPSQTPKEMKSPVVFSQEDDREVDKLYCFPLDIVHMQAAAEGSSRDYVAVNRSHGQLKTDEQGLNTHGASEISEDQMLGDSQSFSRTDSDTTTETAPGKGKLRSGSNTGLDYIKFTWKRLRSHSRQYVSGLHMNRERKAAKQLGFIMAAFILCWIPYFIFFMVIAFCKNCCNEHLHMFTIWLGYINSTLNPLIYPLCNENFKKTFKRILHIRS
Excerpt: as §1

[18] = molecular target: Muscarinic M2 (Homo sapiens, UniProt P08172); experiment: Radioligand binding selectivity, Muscarinic M2
Excerpt: as §1

[19] = molecular target: Muscarinic M3 (Homo sapiens, UniProt P20309); experiment: Radioligand binding selectivity, Muscarinic M3
Excerpt: as §1

[20] = molecular target: Norepinephrine transporter (Homo sapiens, UniProt P23975); experiment: Radioligand binding selectivity, Norepinephrine transporter
Excerpt: as §1

[21] = molecular target: Cl− channel; experiment: Radioligand binding selectivity, Cl− channel
Excerpt: as §1

[22] = molecular target: Ca+2 channel (DHP site); experiment: Radioligand binding selectivity, Ca+2 channel (DHP site)
Excerpt: as §1

[23] = molecular target: Ca+2 channel (verapamil site); experiment: Radioligand binding selectivity, Ca+2 channel (verapamil site)
Excerpt: as §1

[24] = molecular target: T1, human ERG (hERG) K+ channel (Homo sapiens, UniProt Q12809); experiment: hERG channel [3H]astemizole binding assay
T1 construct: host or cells: HEK293 cells
T1 sequence (Q12809 whole entry): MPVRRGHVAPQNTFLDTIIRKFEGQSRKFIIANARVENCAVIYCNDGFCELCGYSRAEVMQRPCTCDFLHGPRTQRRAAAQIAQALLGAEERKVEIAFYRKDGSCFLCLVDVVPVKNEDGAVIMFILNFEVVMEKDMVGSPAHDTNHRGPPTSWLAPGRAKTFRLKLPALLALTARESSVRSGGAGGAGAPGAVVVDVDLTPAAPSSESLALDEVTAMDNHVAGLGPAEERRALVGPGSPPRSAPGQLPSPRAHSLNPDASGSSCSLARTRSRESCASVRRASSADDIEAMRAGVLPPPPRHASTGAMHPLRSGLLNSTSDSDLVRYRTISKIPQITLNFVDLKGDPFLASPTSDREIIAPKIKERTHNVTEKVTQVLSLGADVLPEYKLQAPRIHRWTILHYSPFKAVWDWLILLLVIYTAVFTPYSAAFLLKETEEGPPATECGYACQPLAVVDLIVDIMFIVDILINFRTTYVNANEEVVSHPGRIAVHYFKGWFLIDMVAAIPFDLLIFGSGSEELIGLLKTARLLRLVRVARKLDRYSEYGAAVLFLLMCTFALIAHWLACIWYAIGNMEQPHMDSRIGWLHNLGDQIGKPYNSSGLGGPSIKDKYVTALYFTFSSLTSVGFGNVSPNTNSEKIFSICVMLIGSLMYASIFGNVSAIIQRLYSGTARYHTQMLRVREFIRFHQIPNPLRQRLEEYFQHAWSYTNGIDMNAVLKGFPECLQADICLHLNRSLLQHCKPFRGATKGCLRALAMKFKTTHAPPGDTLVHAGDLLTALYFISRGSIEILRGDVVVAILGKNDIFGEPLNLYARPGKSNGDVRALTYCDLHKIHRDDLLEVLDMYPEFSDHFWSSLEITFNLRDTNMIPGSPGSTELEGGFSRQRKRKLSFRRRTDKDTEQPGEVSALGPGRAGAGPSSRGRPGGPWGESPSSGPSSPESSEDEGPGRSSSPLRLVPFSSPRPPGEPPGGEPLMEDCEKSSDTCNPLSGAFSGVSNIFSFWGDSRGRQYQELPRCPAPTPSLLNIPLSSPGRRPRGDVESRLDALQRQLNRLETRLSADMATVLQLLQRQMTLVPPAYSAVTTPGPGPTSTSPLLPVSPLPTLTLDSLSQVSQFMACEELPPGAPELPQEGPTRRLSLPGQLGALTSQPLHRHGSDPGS
Experimental: Blockade of K^+-channel conductance in the heart is associated with cardiotoxicity in the form of QT-wave prolongation. The affinity (K) of the exemplified nociceptin receptor antagonists for the human ERG (hERG) K^+ channel is determined in HEK293 cells expressing cloned hERG using the hERG channel antagonist radioligand [3H]astemizole (2 nM final assay concentration) according to well known procedures (see for example Finlayson K, et al. (Eur J Pharmacol. 412(3):203-12, 2001) [3H]Astemizole binding assays are performed at the contract research company Cerep (Paris France) according to standard procedures.

[25] = system: male NIH-Swiss mice; experiment: Forced-swim test in mice (mFST); assay type: in vivo; details: for ED60 in mFST: immobilization time; for maximum effect, reduction in immobilization time: mouse, in vivo
Excerpt: mFST is an established in vivo assay for antidepressant activity (Li et al. J Pharmacol Exp Ther. 319(1):254-9, 2006.). […] The mFST was used to evaluate potential antidepressant-like activity of novel nociceptin/ORL1 antagonists according to previously published methods (Li et al. J Pharmacol Exp Ther. 319(1):254-9, 2006.). Briefly, male NIH-Swiss mice (Harlan Sprague-Dawley, Indianapolis, Ind.) weighing between 25-30 g are used. Group housed animals are removed from the vivarium to the testing area in their own cages and allowed to adapt to the new environment for at least 1 hour before testing. Alternatively, male 129S6 wild type and nociceptin/ORL1 receptor knockout mice were used to confirm dependence of the response to compound was nociceptin/ORL1 receptor dependent. All compounds are prepared in 20% Captisol, 25 mM phosphate buffer, pH 2.0 on the day of use. Mice are placed in a cylinder (diameter: 10 cm; height: 25 cm) filled with 6 cm of water (22-25° C.) for 6 min. The duration of immobility during the last 4 min. of the 6 min. period of the test was scored. A mouse is recorded as immobile when floating motionless or making only those movements necessary to keep its head above water.

[26] = system: wild type and ORL knockout mice; experiment: Blockade of fasting-induced hyperphagia in mice; assay type: in vivo
Excerpt: Blockade of fasting-induced hyperphagia in rodents is an accepted model for hyperphagic eating disorders. […] Mice are individually housed a minimum of 3 days prior to the onset of testing to eliminate any effects of stress due to the change from group to individual housing. Three mice/genotype are randomly assigned to each treatment group on the test day. Pre-fast body weight measurements are taken, and food is then removed from cages overnight. Mice are fasted for approximately 15 hr. The next morning, the mice are given one of three doses of drug or vehicle via oral gavage 30 min. prior to gaining access to food. Drugs are dissolved in 20% Captisol dissolved in 25 mM phosphate buffer, pH 2.0. Measurements of body weight are taken immediately prior to drug treatment or 24 hr. after access to food is restored. […] Measurements of food intake are recorded 1 hr following access to food, as indicated, by weight of food remaining at 1 hr. It should be noted that food intake measured is during the light phase, a time during which mice are typically at rest and not normally eating. Following initial testing, mice are rested for 1 week with access to unlimited chow.

[27] = wild type mice, oral gavage 30 min. prior to food, food intake at 1 hr

Sequence of Delta Opioid (P41143 whole entry): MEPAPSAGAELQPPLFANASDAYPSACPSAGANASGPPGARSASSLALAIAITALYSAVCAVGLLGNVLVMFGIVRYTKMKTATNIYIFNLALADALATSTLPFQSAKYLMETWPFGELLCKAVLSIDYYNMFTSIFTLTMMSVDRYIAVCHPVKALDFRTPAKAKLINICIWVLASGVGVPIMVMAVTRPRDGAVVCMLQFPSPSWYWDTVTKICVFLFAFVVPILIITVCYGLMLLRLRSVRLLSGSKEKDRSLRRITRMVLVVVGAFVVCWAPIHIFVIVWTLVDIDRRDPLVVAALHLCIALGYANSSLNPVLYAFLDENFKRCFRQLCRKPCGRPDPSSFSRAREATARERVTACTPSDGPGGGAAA

SMILES: Cc1nn(-c2ncccc2CO)cc1CN1CCC2(CC1)OCC(F)(F)c1cc(Cl)sc12 [Example 62, [2-[4-[(2-Chloro-4,4-difluoro-spiro[5H-thieno[2,3-c]pyran-7,4′-piperidine]-1′-yl)methyl]-3-methyl-pyrazol-1-yl]-3-pyridyl]methanol]
- Ki ([1]; read-out: Ki Delta Opioid): > 0.479 µM
- Ki ([2]; read-out: Ki 5-HT1A): > 3.18 µM
- Ki ([3]; read-out: Ki 5-HT1B): > 3.58 µM
- Ki ([4]; read-out: Ki 5-HT1D): > 8.55 µM
- Ki ([5]; read-out: Ki 5-HT1E): > 5.37 µM
- Ki ([6]; read-out: Ki 5-HT1F): > 8.52 µM
- Ki ([7]; read-out: Ki 5-HT2A): > 5 µM
- Ki ([8]; read-out: Ki 5-HT2B): 0.693 µM
- Ki ([9]; read-out: Ki 5-HT2C): > 5.65 µM
- Ki ([10]; read-out: Ki 5-HT4): > 4.12 µM
- Ki ([11]; read-out: Ki 5-HT5): > 9.09 µM
- Ki ([12]; read-out: Ki D1 Dopamine): > 5 µM
- Ki ([13]; read-out: Ki D2 Dopamine): > 5 µM
- Ki [14]: > 5 µM
- Ki [15]: > 5 µM
- Ki [16]: > 5 µM
- Ki [17]: > 5 µM
- Ki ([18]; read-out: Ki Muscarinic M2): > 0.5 µM
- Ki ([19]; read-out: Ki Muscarinic M3): > 5 µM
- Ki ([20]; read-out: Ki Norepinephrine transporter): > 0.5 µM
- Ki [21]: > 0.5 µM
- Ki [22]: > 5 µM
- Ki [23]: > 0.5 µM
- Ki ([24]; HEK293 cells expressing cloned hERG, [3H]astemizole 2 nM, read-out: Ki hERG K+ channel): 6.08 µM
- Immobilization Time ([25]; 3 mg/Kg Ex. 62 + 10 mg/Kg fluoxetine): 97* sec
- Immobilization Time ([25]; 3 mg/Kg, alone): 163 s
- Immobilization Time ([25]; 10 mg/Kg Ex. 62 + 10 mg/Kg fluoxetine): 85* sec
- Immobilization Time ([25]; 10 mg/Kg, alone): 129 s
- ED60 in mFST [25]: 24.9 mg/kg
- effect on immobilization time in combination with fluoxetine ([25]; in combination with 10 mg/kg fluoxetine): significantly further reduce immobilization time over either fluoxetine or the compound of Example 62 alone
- maximum effect, reduction in immobilization time [25]: 45%
- effect on fasting-induced hyperphagia ([26]; ORL-1 knockout mouse strain): not observed
- effect on fasting-induced hyperphagia [26, 27]: substantially block fasting-induced hyperphagia

SMILES: Cc1nn(-c2ncccc2Cn2cccn2)cc1CN1CCC2(CC1)OCC(F)(F)c1cc(Cl)sc12.O=C(O)C(O)C(O)C(=O)O [Example 23, 2-Chloro-4,4-difluoro-1′-[[3-methyl-1-[3-(pyrazol-1-ylmethyl)-2-pyridyl]pyrazol-4-yl]methyl]spiro[5H-thieno[2,3-c]pyran-7,4′-piperidine] (L)-Tartrate]
- Ki [1]: > 0.479 µM
- Ki [24]: 1.21 µM
- ED60 in mFST [25]: 9.5 mg/kg
- maximum effect, reduction in immobilization time [25]: 58%
- effect on fasting-induced hyperphagia ([26]; ORL-1 knockout mouse strain): not observed
- effect on fasting-induced hyperphagia [26, 27]: substantially block fasting-induced hyperphagia

SMILES: O=C(O)C(O)C(O)C(=O)O.OCc1nn(-c2ncccc2F)cc1CN1CCC2(CC1)OCC(F)(F)c1cc(Cl)sc12 [Example 53, [4-[(2-Chloro-4,4-difluoro-spiro[5H-thieno[2,3-c]pyran-7,4′-piperidine]-1′-yl)methyl]-1-(3-fluoro-2-pyridyl)pyrazol-3-yl]methanol (L)-Tartrate]
- Ki [1]: > 0.479 µM
- Ki [2]: > 3.18 µM
- Ki [3]: > 3.58 µM
- Ki [4]: > 8.55 µM
- Ki [5]: > 5.37 µM
- Ki [6]: > 8.52 µM
- Ki [7]: > 5 µM
- Ki [8]: 0.22 µM
- Ki [9]: > 5.65 µM
- Ki [10]: > 4.12 µM
- Ki [11]: > 9.09 µM
- Ki [12]: > 5 µM
- Ki [13]: > 5 µM
- Ki [14]: > 5 µM
- Ki [15]: > 5 µM
- Ki [16]: > 5 µM
- Ki [17]: > 5 µM
- Ki [18]: > 5 µM
- Ki [19]: > 5 µM
- Ki [20]: > 0.5 µM
- Ki [21]: > 0.5 µM
- Ki [22]: > 5 µM
- Ki [23]: > 5 µM
- Ki [24]: 8.6 µM
- ED60 in mFST [25]: 12.9 mg/kg
- maximum effect, reduction in immobilization time [25]: 54%
- effect on fasting-induced hyperphagia ([26]; ORL-1 knockout mouse strain): not observed
- effect on fasting-induced hyperphagia [26, 27]: substantially block fasting-induced hyperphagia
